Laboratory results taken from publication PMC4013589, “LXXLL Peptide Converts Transportan 10 to a Potent Inducer of Apoptosis in Breast Cancer Cells” (International Journal of Molecular Sciences, 2014).
“Also recorded” adds a separate entry of the source. Where no end group is shown, it is not given here.

Tests used:
[1] = tested on: MCF-7 breast cancer cells; assay: WST-1 viability assay, MCF-7 cells; format: cell-based, human; conditions: WST-1, 5 μM peptide, treated every 24 h, day 3, 1% FBS without insulin; triplicate
Experimental: (§1) Figure 1. Effects of SRC-1 bioportides on cancer and primary fibroblast cells. (A) Viability of MCF-7 cells; (B) Viability of FB188 cells. Cells were seeded in 96-well plates at a density of 3000 or 2000 cells/well, respectively, and treated after every 24 h with the indicated peptide concentrations. Viability of both cell types was monitored at day 3 via the WST-1 assay. The values shown represent the mean values of one experiment, carried out in triplicate (mean ± SD). In total, three independent experiments were performed.
(§2) Cytotoxicity of peptides was measured via the WST-1 conversion assay (Roche, Mannheim, Germany). FB188 and MCF-7 cells were seeded in 96-well plates at a density of 2000 or 3000 cells/well, respectively, and allowed to adhere overnight. Subsequently the cells were pre-incubated for two days in medium containing 1% FBS without supplementary insulin and exposed to the indicated concentrations of the respective peptide for up to 3 days. WST-1 conversion was determined by colorimetric analysis at 450 nm. Briefly, WST-1 reagent (1/10 of sample volume) was added directly to the growth medium and incubated at 37 °C for 4 h. The absorbance was determined using a microplate reader (Molecular Devices, Sunnyvale, CA, USA) at 450 nm. Untreated cells were designated a cell survival value of 100%.

[2] = tested on: human primary fibroblasts (FB188 cells); assay: WST-1 viability assay, primary fibroblasts (FB188); format: cell-based
Experimental: as §1, §2

MDA-MB-231 cells = format: cell-based, human; conditions: for Effect on survival of MDA-MB-231 cells: propidium iodide viability assay, 5 μM every 24 h for 4 days, 1% FBS
Experimental: (§3) Figure 3. Inhibition of cell viability by SRC-1 bioportides and their influence on ERα-mediated gene transactivation. (A) MCF-7 cells; (B) MDA-MB-231 cells. Cells were seeded in 24-well plates at low density and were treated every 24 h for 4 days with 5 μM peptide. Cell proliferation was measured after 1, 3, and 4 days of peptide treatment via a propidium iodide viability assay. […] MCF-7 cells were cultured with 5 μM of the indicated peptides and analyzed on day 2 of treatment. The fold change is the value compared with untreated cells. The values shown represent the mean values of one representative experiment, carried out in triplicate (mean ± SD). In total, three independent experiments were performed.
(§4) Cells were plated at low density in 24-well plates in standard growth medium, as described above. Before peptide treatment, MCF-7 cell growth was impeded by growing cells in 1% FBS containing medium without addition of insulin. At the day of treatment, peptides were added to the growth medium containing 1% FBS to the indicated final concentration. The procedure was repeated every 24 h for 4 days; samples were drawn after 1, 3, and 4 days of treatment and analyzed by cell counting using the propidium iodide viability assay (Nucleocounter, ChemoMetec, Allerød, Denmark) according to manufacturer’s instructions.

MCF-7 cells [3] = format: cell-based, human; conditions: for Effect on survival of MCF-7 cells: propidium iodide viability assay, 5 μM every 24 h for 4 days, 1% FBS without insulin
Experimental: as §3, §4

[4] = tested on: HeLa cervical cancer cells; assay: Toxicity to HeLa cells; format: cell-based, human; conditions: for Toxicity to HeLa cells: data not shown, concentration not given
CTSD mRNA in MCF-7 cells = assay: Quantitative RT-PCR of ERα target gene CTSD, MCF-7; format: cell-based, human; conditions: MCF-7, 5 μM peptide, day 2, qRT-PCR; similar to TP10 or TP10-SRC1_1222–1245 treated cells
Experimental: as §3
(§5) For quantitative RT-PCR (qPCR) analysis, MCF-7 cells were treated as described above for the proliferation assay. On day 2, cells were lysed and total RNA was extracted using a commercial RNAqueous Kit (Ambion, Austin, TX, USA). Genomic DNA was removed with DNase I treatment (Ambion) according to the supplier’s protocol. RNA was reverse-transcribed using SuperScript III Reverse Transcriptase (Invitrogen, Carlsbad, CA, USA). Subsequently, qPCR was performed using Platinum SYBR Green (Invitrogen) according to the manufacturer’s protocol. […]

BCL2 mRNA in MCF-7 cells = assay: Quantitative RT-PCR of ERα target gene BCL2, MCF-7; format: cell-based, human; conditions: MCF-7, 5 μM peptide, day 2, qRT-PCR; similar to TP10 or TP10-SRC1_1222–1245 treated cells
Experimental: as §3, §5

MCF-7 cells [5] = assay: Annexin V / 7-AAD flow cytometric detection of apoptosis; format: cell-based, human; conditions: MCF-7, 5 μM peptide, 24 h, 1% FBS without insulin, flow cytometry
Experimental: Figure 4. Flow cytometric detection of apoptosis by annexin V and 7-amino-actinomycin D (7-AAD) staining. (A) Representative dot plots of 7-AAD versus annexin-V-PE. MCF-7 cells were left untreated (control) or were treated with 5 μM of peptide for 24 h in media supplemented with 1% serum. The lower left quadrant contains the vital (double negative) population; the lower right contains the apoptotic (annexin V^+/7-AAD^−) population; the upper right contains the late apoptotic/necrotic (annexin V^+/7-AAD^+) population; and the upper left contains the pre-necrotic (annexin V^−/7-AAD^+) population; (B) Average percentage of apoptotic and late apoptotic/necrotic cells counted from dot plots taken from one representative experiment, error bars indicate mean ± SD. Data are statistically significant with * p < 0.05, ** p < 0.01. In total, three independent experiments were performed.
Annexin V staining was measured using the PE-annexin-V Apoptosis Detection Kit I (BD Biosciences, San Diego, CA, USA). MCF-7 cells (3 × 10^5) were treated for 24 h with 5 μM peptide in growth medium supplemented with 1% FBS and without insulin. […] Following the addition of 0.4 mL of 1× Binding Buffer, fluorescence of annexin V and 7-AAD was detected in the FL-2 and FL-3 channels, respectively, within 1 h using a FACS Calibur flowcytometer (BD Biosciences, Sparks, MD, USA). […]

pS2 mRNA in MCF-7 cells = assay: Quantitative RT-PCR of ERα target gene pS2, MCF-7; format: cell-based, human; conditions: MCF-7, 5 μM peptide, day 2, qRT-PCR relative to GAPDH, versus untreated cells
Experimental: as §3, §5

| Substance | Effect on viability of MCF-7 cells [1] | Effect on survival of MDA-MB-231 cells (MDA-MB-231 cells) | Effect on survival of MCF-7 cells (MCF-7 cells [3]) | Toxicity to HeLa cells [4] | pS2 mRNA levels (pS2 mRNA in MCF-7 cells) | further results |
| --- | --- | --- | --- | --- | --- | --- |
| NLS-RRRRRRR [R7, hepta-arginine cell-penetrating peptide with SV40 NLS, control, reference compound] | did not have any effect |  |  |  |  | Effect on viability of human primary fibroblasts ([2]; WST-1, 5 μM peptide, treated every 24 h, day 3, 1% FBS, triplicate): did not have any effect |
| NLS-RRRRRRR-PQMQQNVFQYPGAGMVPQGEANF [R7-SRC1_1222–1245, randomly chosen non-structured fragment of SRC-1 with N-terminal R7; negative control] |  | did not affect survival | did not affect survival | not toxic |  |  |
| NLS-RRRRRRR-YSQTSHKLVQLLTTAEQQ [R7-SRC1LXXLL] |  | did not affect survival | did not affect survival | not toxic |  |  |
| PKKKRKVAGYLLGKINLKALAALAKKILYSQTSHKLVQLLTTAEQQ [TP10-SRC1LXXLL] | significantly more toxic; also recorded: highly cytotoxic |  | significant cytotoxic effects |  | No down-regulation | CTSD mRNA expression (CTSD mRNA in MCF-7 cells): slightly elevated; Concentration affecting the viability of primary fibroblasts ([2]; WST-1, day 3): ≥ 4 µM; BCL2 mRNA expression (BCL2 mRNA in MCF-7 cells): slightly elevated; Cells killed (MDA-MB-231 cells; MDA-MB-231, 5 μM every 24 h, day 3, propidium iodide assay): 99%; Number of viable cells (MDA-MB-231 cells; MDA-MB-231, 5 μM every 24 h, day 4, propidium iodide assay): less than 1%; Cells killed (MCF-7 cells [3]; MCF-7, 5 μM every 24 h, day 3, propidium iodide assay): 50%; Number of viable cells (MCF-7 cells [3]; MCF-7, 5 μM every 24 h, day 4, propidium iodide assay): less than 1%; Annexin V and 7-AAD double-stained (late apoptotic/necrotic) cells (MCF-7 cells [5]): smaller population of cells that stained for both 7-AAD and annexin V; Annexin V (+)/7-AAD (−) stained (early apoptotic) cells (MCF-7 cells [5]; compared with untreated cells): predominant population of annexin V positive and 7-AAD negative cells; Cytotoxicity to HeLa cells ([4]; 5 μM): highly cytotoxic |
| TP10 [reference compound] | did not have any effect |  |  |  | No down-regulation |  |
